{
  "source": "paper PMC12391994",
  "about": "“Synthesis of a fac-Tricarbonylrhenium(I) Complex with Pyrithione, Its Physicochemical Characterization, and Assessment of Biological Effects” (ACS Omega, 2025)",
  "key": {"Behavior in blood serum": {"assay": "Behavior in blood serum", "format": "physicochemical, human", "settings": "concentration of 40 μM"}, "[1]": {"assay": "pH-dependent UV-vis spectrophotometry (solution speciation, pKa of aqua ligand)", "format": "physicochemical", "settings": "between pH 3 and 8, no spectral changes", "text": "However, at pH > ∼8, the spectrum changes considerably (Figure ).\nThe isosbestic point indicates a single equilibrium process, which is most likely deprotonation of the coordinated aqua ligand in complex 4a. This process was studied in our previous work for similar fac-[Re(CO)3] complexes formed with (N,N)-bearing ligands, and the calculated pK a (H2O) is around 8. […] Similar pK a values in the presence and absence of the chloride ions indicate a low chloride affinity of the aqua complex. Based on these values, the fraction of [Re(CO)3(pth)(H2O)] is 100% at pH = 7.4. The analogous half-sandwich complex [Ru(cym)(pth)(H2O)]^+ was also characterized by high solution stability, and a similarly high pK a value (10.34 (0.2 M KCl)).\nFor the solution studies, an Agilent Cary 3500 spectrophotometer was utilized to obtain UV–vis spectra in the wavelength range of 200–1100 nm. The path length ( l ) was 1 cm in all cases. The concentrations of the complex were between 10 and 60 μM. For investigation of the effect of chloride ions, the samples contained 60 μM complex and 0–7300 equiv of Cl^–. For HSA-containing samples, complex concentrations were 60 μM, and 0.5 equiv of biomolecule (or 6 equiv of MIM) was added for kinetic studies, respectively. Individual samples contained 0–34 μM HSA. The computer program HypSpec was used to obtain equilibrium constants."}, "[2]": {"molecular_target": "T1, human serum albumin (HSA) (Homo sapiens, UniProt P02768)", "T1 construct": "purchased Sigma-Aldrich/Merck A8763", "T1 sequence (P02768 25-609)": "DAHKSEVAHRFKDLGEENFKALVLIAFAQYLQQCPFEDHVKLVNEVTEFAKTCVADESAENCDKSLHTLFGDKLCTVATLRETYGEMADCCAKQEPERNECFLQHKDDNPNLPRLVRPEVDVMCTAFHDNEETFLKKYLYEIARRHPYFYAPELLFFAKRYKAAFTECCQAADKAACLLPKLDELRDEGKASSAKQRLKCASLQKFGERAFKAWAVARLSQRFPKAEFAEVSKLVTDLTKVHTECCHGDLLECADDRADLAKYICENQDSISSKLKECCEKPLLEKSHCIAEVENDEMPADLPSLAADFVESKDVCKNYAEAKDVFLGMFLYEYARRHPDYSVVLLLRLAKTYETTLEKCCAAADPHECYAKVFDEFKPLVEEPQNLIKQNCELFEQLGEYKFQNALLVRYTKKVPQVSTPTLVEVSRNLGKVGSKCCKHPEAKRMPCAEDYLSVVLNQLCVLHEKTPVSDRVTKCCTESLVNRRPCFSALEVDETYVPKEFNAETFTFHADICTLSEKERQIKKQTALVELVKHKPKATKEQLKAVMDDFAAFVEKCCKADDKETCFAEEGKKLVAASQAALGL", "assay": "Tryptophan (Trp214) fluorescence quenching assay with HSA", "format": "binding", "settings": "1 μM HSA", "protocol": "HSA contains only one tryptophan residue (Trp214), which is located in a hydrophobic pocket in subdomain IIA of the protein. When a compound binds to HSA, it can affect the local environment of Trp214, leading to a decrease in its fluorescence intensity.\nFluorescence measurements were carried out on a Fluoromax (Horiba Jobin Yvon, Longjumeau, France) spectrofluorometer using a 1 cm × 1 cm quartz cuvette. Samples contained 1 μM HSA and the complex concentration was varied between 0 and 18 μM. The measurements were carried out as titration. The excitation wavelength was 295 for the Trp214 quenching measurements, and the determined quenching constant for HSA–complex species (1:1) was obtained using the computer program HypSpec. Calculations always were based on data obtained from at least two independent measurements. Self-absorbance and inner filter effect had to be considered, and corrections were made as was described in our former works. ,"}, "CCD-19Lu cells": {"system": "CCD-19Lu cells", "assay": "MTT cytotoxicity assay, CCD-19Lu", "format": "cell-based, human", "settings": "72 h incubation, noncancerous fibroblast", "protocol": "Its cytotoxicity was determined in the human HeLa cervical cancer cell line, the drug-sensitive Colo205 and its resistant counterpart, the ABCB1 expressing Colo320 colon adenocarcinoma cancer cell lines, using the colorimetric 3-(4,5-dimethylthiazol-2-yl)-2,5-diphenyltetrazolium bromide (MTT) test. To investigate the selectivity toward cancer cells, the noncancerous fibroblast CCD-19Lu cell line was included.\nThe tested compound was dissolved in DMSO to prepare a 5 mM stock solution, which was diluted in complete culture medium, to study the effect of compounds on cell growth of human colonic adenocarcinoma cell lines. Doxorubicin was used as the positive control. The cells were treated with a trypsin-versene (EDTA) solution. Cells were adjusted to a density of 1 × 10^4 cells in 100 μL of the appropriate culture medium and were added to each well, with the exception of the medium control wells. Except for the semiadherent Colo205 and Colo320 cell lines, the other adherent cell lines were seeded 24 h prior to the assay. Then, stock solutions were diluted in the appropriate culture medium, and 2-fold serial dilutions of compounds were prepared in 100 μL of the medium, horizontally. […] Cell growth was determined by measuring the optical density (OD) at 540/630 nm with a Multiscan EX ELISA reader (Thermo Labsystems, Cheshire, WA). […]"}, "[3]": {"molecular_target": "T2, cathepsin B (exopeptidase activity) (Homo sapiens, UniProt P07858)", "T2 construct": "made in house; host or cells: E. coli", "assay": "Determination of inhibition constants, cathepsin B exopeptidase activity", "format": "biochemical", "settings": "substrate Abz-GIVRAK(Dnp)-OH, mixed inhibition", "protocol": "Human recombinant cathepsin B was expressed in E. coli, recombinant cathepsin V was expressed in Pichia pastoris, and human recombinant cathepsin L was expressed in E. coli, as reported. − For the determination of cathepsin B endopeptidase and exopeptidase activities, 100 mM phosphate buffer (pH 6.0) and 60 mM acetate buffer (pH 5.0) were used, respectively, and for the determination of cathepsin V and L activities, 100 mM acetate buffer (pH 5.5) was used. All buffers contained 0.1% PEG 8000 (Sigma-Aldrich, St. Louis, MO), 5 mM cysteine, and 1.5 mM EDTA. Prior to the assay, the enzymes were activated in the assay buffer for 5 min at 37 °C.\nInhibition constants were calculated from the reaction velocities measured at three substrate concentrations (the substrate Z-Arg-Arg-AMC at concentrations of 60, 180, and 360 μM and the substrate Abz-Gly-Ile-Val-Arg-Ala-Lys(Dnp)-OH at concentrations of 1, 3, and 6 μM to assess cathepsin B endopeptidase and exopeptidase activity, respectively) in the presence of seven concentrations of the inhibitor (0, 20, 40, 60, 80, 100, and 200 μM). […] Formation of fluorescent degradation products was monitored as described above. […]"}},
  "note": "Marks after values point to notes of the source that are not given here.",
  "data": [
    {"smiles": "N#Cc1ccccc1.[C-]#[O+].[C-]#[O+].[C-]#[O+].[O-]n1ccccc1=S.[Re+]", "note": "[complex 4, fac-[Re(CO)3(pth)(benzonitrile)]]", "values": [
      {"measurement": "behavior in blood serum", "setting": "Behavior in blood serum", "result": "precipitation"},
      {"measurement": "integrity of the complex (aqua form) from UV-vis spectra", "setting": "[1]", "result": "remains intact"},
      {"measurement": "log KQ quenching constant", "setting": "[2]; 0–18 μM complex, pH 7.4 (PBS), 25 °C", "result": "6.3 ± 0.1"},
      {"measurement": "degree of HSA fluorescence quenching", "setting": "[2]; ∼4 equivalents of complex, λEX 295 nm, pH 7.4", "result": "~85", "unit": "%"},
      {"measurement": "IC50", "setting": "CCD-19Lu cells", "result": "5.47 ± 0.17", "unit": "µM"},
      {"measurement": "Ki′ (dissociation of enzyme–substrate–inhibitor complex), exopeptidase activity", "setting": "[3]", "result": "67.0 ± 8.3 ^d μM"},
      {"measurement": "Ki", "setting": "[3]; read-out: Ki (dissociation of enzyme–inhibitor complex), exopeptidase activity", "result": "165 ± 76", "unit": "µM"}
    ]}
  ]
}
